Consider one compound from patent publication US20190133998A1, “TREATMENT OF TUMORS WITH INHIBITORS OF CXCL12 SIGNALING AND SUBT[…] OF CHEMOTHERAPEUTIC AGENTS” (THE GENERAL HOSPITAL CORPORATION, priority 2016, published 2019).

Several values for one entry are separate records, joined by “and”; a condition that tells them apart may be missing. Identical values can stand only once. Like-named read-outs stand apart in the source and are kept apart here.

For assay [1], the system named is TOV-112D human ovarian cancer cells. In words: cells. As to the method: (§1) Drug Titrations: TAXOL was titered to determine the concentrations used in combination with AMD3100. Cells were cultured in 96-well black assay plates with optically clear bottoms (500 and 2500 cells per well were tested), including a standard curve plate. ID8 cells were then exposed to increasing concentrations of paclitaxel (1, 0.5, 0.15, 0.05, 0.015, and 0.005 μM), and TOV cells were exposed to 15, 5, and 1 nM Taxol for 48 or 96 hr. Proliferation was measured by measuring the amount of dsDNA using CyQuant reagent and read on a Perkin Elmer Envision 2103. AMD3100 (50, 25, 10, 5, 2.5, and 1 μM) was titered in the same manner. Each condition was done in triplicate. Drugs were not replenished during any of the experiments. Data was analyzed in Prism 7.
Simultaneous Delivery of Small Molecules and Chemotherapy: To determine the effect of AMD3100 alone or in combination with TAXOL, cell proliferation was measured by seeding 2500 TOV cells and 500 ID8 cell per well in a clear bottom 96-well black assay plates. AMD3100 (final concentrations: 10 μM for ID8 and 2.5 μM for TOV) and Paclitaxel (final concentrations: 15 and 5 nM for ID8 cells and 5 and 1 nM for TOV cells) were mixed with DMEM. 100 μL of the mixture was added to the cells. Each condition was done in triplicate. […] Standard curve plates were washed the same day the experiment was done. Plates were stored at −80° C. after washing and proliferation rate was measured then by CyQuant assay.

In assay [2] the test system is TOV-112D cells. Nature of the assay: Soft-agar colony formation, TOV-112D. It is filed as cell-based, human. As to the method: (§2) ID8 and TOV Colony Formation in The Presence of Small Molecules and/or Chemotherapy: Bottom Layer Hard Agar: 2×DMEM and 0.8% agar stock was prepared and adjusted to 42° C. in a water bath for 30 min. The agar and 2×DMEM were mixed (1:2). 500 μL of the mixture was then added to each well of a 24 well plate, and the plate was rocked to distribute evenly and allowed to solidify at room temperature in a tissue culture hood. Upper Layer Soft Agar: 0.6% agar stock was prepared adjusted to 42° C. in a water bath for 30 min. During this time, ID8 cells were trypsinized, and 40,000 cells per mL suspension in 1×DMEM was made. Cell suspensions were then mixed with soft agar stock (1:2) and 500 μL of the mixture was then added to each well. Each condition was in triplicate.
[…] 100 μL of each drug was added to the relative wells in triplicate. Plates were then incubated in a humidified incubator with […] for 20-30 days. At the end of the experiment, each well was stained with 0.005% crystal violet in 15% ethanol (140 μL per well) and plates were incubated again for several hours then photos were taken using a microscope. ID8 Colonies equal or bigger […] and TOV colonies equal or bigger than […] were counted using Image J software.

Assay [3] has as its system TOV-112D cells. The following applies: control media, then TAXOL 1 nM 96 hr. As to the method:
(§3) Sequential Delivery of Small Molecules and Chemotherapy: ID8 cells were exposed to AMD3100 in a 6 well plate (2.5×10^5 cells/well) for 72 hr. Cells were then washed and counted. Cell viability was checked by propidium iodide. For each condition, 500 cells per well of viable ID8 cells were then seeded into a 96 well black assay plate. ID8 cells were then incubated in DMEM containing a carrier, AMD3100 10 μM, TAXOL 0.005 μM, or both for another 72 hr. For TOV-112D cells, initial 72 hr incubation was with AMD3100 5 μM, followed by 96 hr incubation in media containing AMD3100 5 μM, TAXOL 1 nM, or both. At the conclusion of the experiment, plates were washed and dsDNA was measured via CyQuant assay.

The subject of assay [4] is ID8 cells. The note with it: ID8, no AMD3100 pre-treatment, re-plated in TAXOL 0.005 μM 72 hr. As to the method:
as §3

The subject of assay [5] is ID8 murine ovarian cancer cells. In words: cells. The note with it: Mus musculus. As to the method: as §1
Simultaneous Delivery of Small Molecules and Chemotherapy: To determine the effect of AMD3100 alone or in combination with TAXOL, cell proliferation was measured by seeding 2500 TOV cells and 500 ID8 cell per well in a clear bottom 96-well black assay plates. AMD3100 (final concentrations: 10 μM for ID8 and 2.5 μM for TOV) and Paclitaxel (final concentrations: 15 and 5 nM for ID8 cells and 5 and 1 nM for TOV cells) were mixed with DMEM. 100 μL of the mixture was added to the cells. Each condition was done in triplicate. Plates were incubated at 37° C. with 5% CO2 for 72 hr (ID8) and 96 hr (TOV-112D). Standard curve plates were washed the same day the experiment was done. Plates were stored at −80° C. after washing and proliferation rate was measured then by CyQuant assay.

Assay [6] relates to ID8 cells. In words: Soft-agar colony formation, ID8. It counts as cell-based, murine. As to the method:
as §2
Drug-DMEM stocks were made to achieve the proper concentrations in 1.1 mL, the total volume of each well: AMD3100 (10 μM and 1 μM for ID8 cells, 5 μM and 2.5 μM for TOV cells) and TAXOL (0.015 μM and 0.005 μM). 100 μL of each drug was added to the relative wells in triplicate. Plates were then incubated in a humidified incubator with […] for 20-30 days. At the end of the experiment, each well was stained with 0.005% crystal violet in 15% ethanol (140 μL per well) and plates were incubated again for several hours then photos were taken using a microscope. ID8 Colonies equal or bigger […] and TOV colonies equal or bigger than […] were counted using Image J software.

Another assay relates to human ovarian cancer. The following applies: reported; read-out: IC50 of paclitaxel in human ovarian cancer; cited from earlier work.

Regarding `CC(=O)O[C@H]1C(=O)[C@@]2(C)[C@H]([C@H](OC(=O)c3ccccc3)[C@]3(O)C[C@H](OC(=O)[C@H](O)[C@@H](NC(=O)c4ccccc4)c4ccccc4)C(C)=C1C3(C)C)[C@]1(OC(C)=O)CO[C@@H]1C[C@@H]2O` [TAXOL, Paclitaxel], the IC50 was 2.5 nM in assay [1] (Homo sapiens, TOV112D, read-out: IC50, human ovarian cancer cells (TOV)); 5 nM in assay [5] (ID8, 72 h, read-out: IC50, ID8 cell proliferation); 5 nM in assay [5] (read-out: IC50, ID8 murine ovarian cancer cells); at most 3000 nM in the assay with human ovarian cancer. The inhibition at 0.005 µM worked out at 89% in assay [1] (Homo sapiens, TOV112D, read-out: proliferation inhibition) and 50% in assay [5] (ID8, read-out: proliferation inhibition). Also, the “TOV-112D cell proliferation inhibition” value in assay [1] (TAXOL 1 nM, after 72 hours) was “did not significantly inhibit”. In addition, the TOV-112D colony formation result with TOV-112D cells [2] (TAXOL 5 nM) is listed as “completely preventing”. In addition, in the assay with TOV-112D cells [2] (TOV-112D, TAXOL 1 nM alone, non-significant), the “reduced colony formation by” value is reported as 20%. Also, the “proliferation reduced by” value with TOV-112D cells [3] was 24%. Also, the “cell proliferation reduced by” value with ID8 cells [4] came to 50%. The “reduced ID8 colony formation by” value was 56% and 57% in the assay with ID8 cells [6] (TAXOL 5 nM); 94% in the assay with ID8 cells [6] (TAXOL 15 nM).
